Assay results as given in paper PMC10709440, “High-throughput ligand profile characterization in novel cell lines expressing seven heterologous insect olfactory receptors for the detection of volatile plant biomarkers” (Scientific Reports, 2023).
Where two headings read alike, the source gives them in different places.

Legend:
Drosophila OR10a = target: T1, Drosophila OR10a (Drosophila melanogaster, UniProt Q9VYZ1); assay: Calcium ion fluorescence (GCaMP6) assay, OR10a stable HEK293 cell line; format: cell-based
T1 construct: expressed in transfected cells
T1 sequence (Q9VYZ1 1-406): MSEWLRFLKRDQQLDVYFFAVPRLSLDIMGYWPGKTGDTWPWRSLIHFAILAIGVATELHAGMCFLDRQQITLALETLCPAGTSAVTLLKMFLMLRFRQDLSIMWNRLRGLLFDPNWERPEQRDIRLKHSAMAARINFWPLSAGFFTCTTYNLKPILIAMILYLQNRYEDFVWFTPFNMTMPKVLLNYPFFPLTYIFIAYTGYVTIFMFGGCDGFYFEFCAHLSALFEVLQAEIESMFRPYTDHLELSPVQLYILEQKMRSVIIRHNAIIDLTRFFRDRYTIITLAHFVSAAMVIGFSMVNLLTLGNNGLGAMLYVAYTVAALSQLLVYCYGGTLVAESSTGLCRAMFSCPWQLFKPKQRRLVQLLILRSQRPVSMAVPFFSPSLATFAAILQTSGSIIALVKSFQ
T1 sequence (Q9VNB5 1-486 partner): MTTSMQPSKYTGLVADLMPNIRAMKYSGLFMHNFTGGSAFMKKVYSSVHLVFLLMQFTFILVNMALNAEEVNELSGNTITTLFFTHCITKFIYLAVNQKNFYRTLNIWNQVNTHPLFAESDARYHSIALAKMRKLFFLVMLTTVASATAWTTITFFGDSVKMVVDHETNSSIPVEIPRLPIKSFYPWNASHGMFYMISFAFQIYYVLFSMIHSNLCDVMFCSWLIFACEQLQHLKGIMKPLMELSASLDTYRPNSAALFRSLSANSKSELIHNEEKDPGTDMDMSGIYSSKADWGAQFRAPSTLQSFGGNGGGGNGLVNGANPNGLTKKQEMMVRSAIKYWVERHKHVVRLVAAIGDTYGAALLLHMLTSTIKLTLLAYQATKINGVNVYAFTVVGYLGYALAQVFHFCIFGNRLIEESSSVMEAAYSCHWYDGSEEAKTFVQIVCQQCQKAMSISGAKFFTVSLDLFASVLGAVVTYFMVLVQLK
In short: (§1)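 HEK293 lines stably expressing each Drosophila OR with GCaMP6, doxycycline-induced (1 μg/mL) 48 or 72 h. Fluorescence recorded 5 s baseline then 30 s after VOC injection at pH 7.3; ΔF=(FMAX−F0)/F0, normalized to 50 µM VUAA1 response per line, triplicate wells averaged; concentration series 0.01–100 μM.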

Drosophila OR71a = target: T2, Drosophila OR71a (Drosophila melanogaster, UniProt Q9VUK5); assay: Calcium ion fluorescence (GCaMP6) assay, OR71a stable HEK293 cell line; format: cell-based; details: for activation at 1 µM / activation at 10 µM / activation at 100 µM: HEK293, read-out: OR71a response (VUAA1-normalized response); for Average response: VUAA1-normalized response, mean of biological replicates
T2 construct: expressed in transfected cells
T2 sequence (Q9VUK5 1-378): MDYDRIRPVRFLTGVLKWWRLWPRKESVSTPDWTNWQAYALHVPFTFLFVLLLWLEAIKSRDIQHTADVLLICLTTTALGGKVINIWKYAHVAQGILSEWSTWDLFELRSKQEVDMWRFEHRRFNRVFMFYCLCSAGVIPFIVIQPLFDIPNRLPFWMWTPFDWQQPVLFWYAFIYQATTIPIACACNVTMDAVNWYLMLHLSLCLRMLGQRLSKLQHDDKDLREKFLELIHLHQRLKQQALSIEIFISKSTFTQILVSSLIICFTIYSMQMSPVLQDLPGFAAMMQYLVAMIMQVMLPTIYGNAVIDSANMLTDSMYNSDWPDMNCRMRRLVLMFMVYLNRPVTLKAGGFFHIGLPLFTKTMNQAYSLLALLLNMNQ
T2 sequence (Q9VNB5 1-486 partner): T1 sequence (Q9VNB5 1-486 partner)
In short: as §1

[1] = HEK293, 1 μM VOC, 50 μM VUAA1 = 1, responses not exceeding 0.05 considered 0, read-out: OR10a Average response (VUAA1-normalized)
[2] = HEK293, 10 μM VOC, 50 μM VUAA1 = 1, responses not exceeding 0.05 considered 0, read-out: OR10a Average response (VUAA1-normalized)
[3] = HEK293, 100 μM VOC, 50 μM VUAA1 = 1, responses not exceeding 0.05 considered 0, read-out: OR10a Average response (VUAA1-normalized)
[4] = HEK293, read-out: OR10a response (VUAA1-normalized response), VOC concentration 1 μM
[5] = HEK293, read-out: OR10a response (VUAA1-normalized response), VOC concentration 10 μM
[6] = HEK293, read-out: OR10a response (VUAA1-normalized response), VOC concentration 100 μM
[7] = concentration 1, normalized fluorescence change, values below 0.05 threshold given as 0
[8] = concentration 10, normalized fluorescence change, values below 0.05 threshold given as 0
[9] = concentration 100, normalized fluorescence change, values below 0.05 threshold given as 0
[10] = ligand concentration 10 (unit not given), 0.05 threshold, values below shown as 0
[11] = HEK293, read-out: OR10a Average response (VUAA1-normalized), 1 μM VOC, 50 μM VUAA1 = 1, responses not exceeding 0.05 considered 0
[12] = HEK293, read-out: OR10a Average response (VUAA1-normalized), 10 μM VOC, 50 μM VUAA1 = 1, responses not exceeding 0.05 considered 0
[13] = HEK293, read-out: OR10a Average response (VUAA1-normalized), 100 μM VOC, 50 μM VUAA1 = 1, responses not exceeding 0.05 considered 0
[14] = ligand concentration 1 (unit not given), threshold 0.05, below shown as 0
[15] = ligand concentration 10 (unit not given), threshold 0.05, below shown as 0
[16] = ligand concentration 100 (unit not given), threshold 0.05, below shown as 0

Structure (SMILES) | DF norm AVERAGE OR10a (Drosophila OR10a) | activation at 1 µM (Drosophila OR10a; [1]) [%] | activation at 10 µM (Drosophila OR10a; [2]) [%] | activation at 100 µM (Drosophila OR10a; [3]) [%] | activation at 1 µM (Drosophila OR10a; [4]) [%] | activation at 10 µM (Drosophila OR10a; [5]) [%] | activation at 100 µM (Drosophila OR10a; [6]) [%] | activation at 1 µM (Drosophila OR71a) [%] | activation at 10 µM (Drosophila OR71a) [%] | activation at 100 µM (Drosophila OR71a) [%] | Average response (Drosophila OR71a; OR71a cell line, cc. 1 µM) | Average response (Drosophila OR71a; OR71a cell line, cc. 10 µM) | Average response (Drosophila OR71a; OR71a cell line, cc. 100 µM) | DF norm AVERAGE OR71a (Drosophila OR71a; [7]) | DF norm AVERAGE OR71a (Drosophila OR71a; [8]) | DF norm AVERAGE OR71a (Drosophila OR71a; [9]) | activation at 1 µM (Drosophila OR10a; [11]) [%] | activation at 10 µM (Drosophila OR10a; [12]) [%] | activation at 100 µM (Drosophila OR10a; [13]) [%] | DF norm AVERAGE OR10a (Drosophila OR10a; [8]) | also measured
CCCCC(C)O (centres unmarked) [2-hexanol] | 0 | 2.54 | 0 | 0 | 0 | 0 | 0 | 0 | 0 | 0 | 0.00 | 0.00 | 0.0351 | 0 | 0 | 0 | – | – | – | – | –
CCCCCCCCCCCCCC [tetradecane] | – | 11 | 4.22 | 8 | – | – | – | – | – | – | 0.0218 | 0.0215 | 0.0462 | – | – | – | – | – | – | – | OR10a response (VUAA1-normalized) at 1 μM (Drosophila OR10a; OR10a cell line, VOC concentration 1 μM): 0.11; OR10a response (VUAA1-normalized) at 10 μM (Drosophila OR10a; OR10a cell line, VOC concentration 10 μM): 0.00; OR10a response (VUAA1-normalized) at 100 μM (Drosophila OR10a; OR10a cell line, VOC concentration 100 μM): 0.08; DF norm AVERAGE OR10a (Drosophila OR10a; ligand concentration 1 (unit not given), […]): 0.1095; DF norm AVERAGE OR10a (Drosophila OR10a; [10]): 0; DF norm AVERAGE OR10a (Drosophila OR10a; ligand concentration 100 (unit not given), […]): 0.08392; OR71a response (VUAA1-normalized) at 1 μM (Drosophila OR71a; OR71a cell line, VOC concentration 1 μM): 0.00; OR71a response (VUAA1-normalized) at 10 μM (Drosophila OR71a; OR71a cell line, VOC concentration 10 μM): 0.00; OR71a response (VUAA1-normalized) at 100 μM (Drosophila OR71a; OR71a cell line, VOC concentration 100 μM): 0.00; DF norm AVERAGE OR71a (Drosophila OR71a; ligand concentration 1 (unit not given), 0.05 threshold, values below shown as 0): 0; DF norm AVERAGE OR71a (Drosophila OR71a; [10]): 0; DF norm AVERAGE OR71a (Drosophila OR71a; ligand concentration 100 (unit not given), 0.05 threshold, values below shown as 0): 0
CCCCC(C)=O [2-hexanone] | – | – | – | – | 10 | 0 | 0 | 8 | 0 | 0 | 0.08 | 0.00 | 0.00 | 0.08158 | 0 | 0 | 10 | 0 | 0 | 0 | DF norm AVERAGE OR10a (Drosophila OR10a; [7]): 0.09901; DF norm AVERAGE OR10a (Drosophila OR10a; [9]): 0
COc1cccc(OC)c1 [1,3-dimethoxy benzene] | 0 | 0 | 0 | 0 | 0 | 0 | 0 | 0 | 0 | 0 | 0.00 | 0.04 | 0.00 | 0 | 0 | 0 | – | – | – | – | –
C=C1CC[C@H]2O[C@]2(C)CC[C@@H]2[C@@H]1CC2(C)C [(-)-caryophyllene oxide] | – | – | – | – | 0 | 0 | 0 | 0 | 0 | 7.44 | 0.00 | 0.00 | 0.0744 | 0 | 0 | 0.07441 | 0 | 0 | 0 | 0 | DF norm AVERAGE OR10a (Drosophila OR10a; [7]): 0; DF norm AVERAGE OR10a (Drosophila OR10a; [9]): 0
CC1=CC[C@@H](C(C)(C)O)CC1 [alpha-terpineol] | – | – | – | – | 0 | 0 | 0 | 0 | 0 | 0 | 0.00 | 0.00 | 0.04 | – | – | – | 3.64 | 2.71 | 0 | – | DF norm AVERAGE OR10a (Drosophila OR10a; [14]): 0; DF norm AVERAGE OR10a (Drosophila OR10a; [15]): 0; DF norm AVERAGE OR10a (Drosophila OR10a; [16]): 0; DF norm AVERAGE OR71a (Drosophila OR71a; [14]): 0; DF norm AVERAGE OR71a (Drosophila OR71a; [15]): 0; DF norm AVERAGE OR71a (Drosophila OR71a; [16]): 0
CCCCCC(O)CC (centres unmarked) [3-octanol] | 0 | 0 | 6 | 6 | 0 | 6 | 6 | 0 | 0 | 0 | 0.0215 | 0.00 | 0.00 | 0 | 0 | 0 | – | – | – | 0.05884 | DF norm AVERAGE OR10a (Drosophila OR10a; [9]): 0.05921
